Assay: Safety and adverse events
Format: in vivo, human
Text: On study blood tests included complete blood count (CBC) with differential and platelets; chemistry panel including sodium, potassium, creatinine, BUN, glucose, total protein, albumin, bilirubin (total), alkaline phosphatase, AST (SGOT), and ALT (SGPT), and lipid profile (HDL, LDL and triglycerides, cholesterol. […] Adverse event analysis was based on the percentage of patients who discontinued the study and the percentage of patients who discontinued the study possibly due to adverse events.

glatiramer acetate [Placebo + GA]
Fibrocystic disease on clinical exam - % (Breast): (5) %
Fibrocystic disease on clinical exam - no. (Breast): 4
Mammogram with malignancy - no. (Breast): 0
Breast adverse events, # of patients (Completed): [5]
Breast adverse events, number of events (Completed): 5
Cardiovascular adverse events, # of patients (Completed): [8]
Cardiovascular adverse events, number of events (Completed): 8
Extremity adverse events, # of patients (Completed): [21]
Extremity adverse events, number of events (Completed): 43
GA related? adverse events, # of patients (Completed): [11]
GA related? adverse events, number of events (Completed): 22
GI adverse events, # of patients (Completed): [15]
GI adverse events, number of events (Completed): 19
GU adverse events, # of patients (Completed): [10]
GU adverse events, number of events (Completed): 17
GYN adverse events, # of patients (Completed): [15]
GYN adverse events, number of events (Completed): 18
General adverse events, # of patients (Completed): [26]
General adverse events, number of events (Completed): 48
Head/Neck adverse events, # of patients (Completed): [26]
Head/Neck adverse events, number of events (Completed): 42
Lymph adverse events, # of patients (Completed): [1]
Lymph adverse events, number of events (Completed): 1
MRI related adverse events, # of patients (Completed): [2]
MRI related adverse events, number of events (Completed): 3
Menses adverse events, # of patients (Completed): [10]
Menses adverse events, number of events (Completed): 14
Mental adverse events, # of patients (Completed): [10]
Mental adverse events, number of events (Completed): 14
Neurology adverse events, # of patients (Completed): [9]
Neurology adverse events, number of events (Completed): 13
Respiratory adverse events, # of patients (Completed): [26]
Respiratory adverse events, number of events (Completed): 47
Skeleton adverse events, # of patients (Completed): [1]
Skeleton adverse events, number of events (Completed): 2
Skin adverse events, # of patients (Completed): [10]
Skin adverse events, number of events (Completed): 15
Total adverse events, # of patients (Completed): [53]
Total adverse events, number of events (Completed): 331
Cancer adverse events, # of patients (Discontinued): [1]
Cancer adverse events, number of events (Discontinued): 1
Extremity adverse events, # of patients (Discontinued): [2]
Extremity adverse events, number of events (Discontinued): 4
GA related? adverse events, # of patients (Discontinued): [4]
GA related? adverse events, number of events (Discontinued): 10
GI adverse events, # of patients (Discontinued): [3]
GI adverse events, number of events (Discontinued): 3
GU adverse events, # of patients (Discontinued): [3]
GU adverse events, number of events (Discontinued): 3
GYN adverse events, # of patients (Discontinued): [3]
GYN adverse events, number of events (Discontinued): 3
General adverse events, # of patients (Discontinued): [6]
General adverse events, number of events (Discontinued): 9
Head/Neck adverse events, # of patients (Discontinued): [4]
Head/Neck adverse events, number of events (Discontinued): 9
Lymph adverse events, # of patients (Discontinued): [1]
Lymph adverse events, number of events (Discontinued): 1
Menses adverse events, # of patients (Discontinued): [2]
Menses adverse events, number of events (Discontinued): 3
Mental adverse events, # of patients (Discontinued): [5]
Mental adverse events, number of events (Discontinued): 5
Neurology adverse events, # of patients (Discontinued): [1]
Neurology adverse events, number of events (Discontinued): 1
Respiratory adverse events, # of patients (Discontinued): [3]
Respiratory adverse events, number of events (Discontinued): 7
Skin adverse events, # of patients (Discontinued): [2]
Skin adverse events, number of events (Discontinued): 2
Total adverse events, # of patients (Discontinued): [13]
Total adverse events, number of events (Discontinued): 61
Abnormal proliferation on biopsy - no. (Uterus): 0
Endometrial biopsies performed - % (Uterus): (8) %
Endometrial biopsies performed - no. (Uterus): 6
Endometrial thickness >8 mm (ultrasound) - % (Uterus): (36) %
Endometrial thickness >8 mm (ultrasound) - no. (Uterus): 27
Fibroids (ultrasound) - % (Uterus): (11) %
Fibroids (ultrasound) - no. (Uterus): 8
Adverse events leading to discontinuation - % (in vivo): (6%)
Adverse events leading to discontinuation - no. (in vivo): 5
Any adverse event - % of pts (in vivo): 87%
Any adverse event - no of pts (in vivo): 67
Any adverse event - no. of events (in vivo): 392
Arm/leg numbness, tingling - % of pts (in vivo): 9%
Arm/leg numbness, tingling - no of pts (in vivo): 7
Arm/leg numbness, tingling - no. of events (in vivo): 10
Back pain - % of pts (in vivo): 6%
Back pain - no of pts (in vivo): 5
Back pain - no. of events (in vivo): 5
Copaxone injection area abnormalities - % of pts (in vivo): 18%
Copaxone injection area abnormalities - no of pts (in vivo): 14
Copaxone injection area abnormalities - no. of events (in vivo): 30
Depression/anxiety - % of pts (in vivo): 12%
Depression/anxiety - no of pts (in vivo): 9
Depression/anxiety - no. of events (in vivo): 10
Dizziness - % of pts (in vivo): 9%
Dizziness - no of pts (in vivo): 7
Dizziness - no. of events (in vivo): 10
Fatigue - % of pts (in vivo): 10%
Fatigue - no of pts (in vivo): 8
Fatigue - no. of events (in vivo): 10
Gastroenteritis - % of pts (in vivo): 4%
Gastroenteritis - no of pts (in vivo): 3
Gastroenteritis - no. of events (in vivo): 4
Headache - % of pts (in vivo): 14%
Headache - no of pts (in vivo): 11
Headache - no. of events (in vivo): 12
Heart palpitation - % of pts (in vivo): 5%
Heart palpitation - no of pts (in vivo): 4
Heart palpitation - no. of events (in vivo): 4
Insomnia - % of pts (in vivo): 5%
Insomnia - no of pts (in vivo): 4
Insomnia - no. of events (in vivo): 4
Irregular menses/spotting - % of pts (in vivo): 4%
Irregular menses/spotting - no of pts (in vivo): 3
Irregular menses/spotting - no. of events (in vivo): 4
Menstrual cramp - % of pts (in vivo): 5%
Menstrual cramp - no of pts (in vivo): 4
Menstrual cramp - no. of events (in vivo): 5
Menstrual flow amount increased - % of pts (in vivo): 8%
Menstrual flow amount increased - no of pts (in vivo): 6
Menstrual flow amount increased - no. of events (in vivo): 8
Nausea/vomiting - % of pts (in vivo): 6%
Nausea/vomiting - no of pts (in vivo): 5
Nausea/vomiting - no. of events (in vivo): 5
Severe adverse events - % of pts (in vivo): 13%
Severe adverse events - no of pts (in vivo): 10
Severe adverse events - no. of events (in vivo): 12
Shingles - % of pts (in vivo): 5%
Shingles - no of pts (in vivo): 4
Shingles - no. of events (in vivo): 4
Sinusitis - % of pts (in vivo): 13%
Sinusitis - no of pts (in vivo): 10
Sinusitis - no. of events (in vivo): 14
Upper respiratory infection - % of pts (in vivo): 34%
Upper respiratory infection - no of pts (in vivo): 26
Upper respiratory infection - no. of events (in vivo): 38
Urinary tract infection - % of pts (in vivo): 13%
Urinary tract infection - no of pts (in vivo): 10
Urinary tract infection - no. of events (in vivo): 16
Vaginal infection - % of pts (in vivo): 10%
Vaginal infection - no of pts (in vivo): 8
Vaginal infection - no. of events (in vivo): 9
Vision problem (blurry, double) - % of pts (in vivo): 9%
Vision problem (blurry, double) - no of pts (in vivo): 7
Vision problem (blurry, double) - no. of events (in vivo): 7
Accidently took other's drug - % of pts (severe adverse event): [1, 1%]
Accidently took other's drug - no of pts (severe adverse event): [1, 1%]
Accidently took other's drug - no. of events (severe adverse event): 1
Acute appendicitis - % of pts (severe adverse event): [1, 1%]
Acute appendicitis - no of pts (severe adverse event): [1, 1%]
Acute appendicitis - no. of events (severe adverse event): 1
B-cell lymphoma - % of pts (severe adverse event): [1, 1%]
B-cell lymphoma - no of pts (severe adverse event): [1, 1%]
B-cell lymphoma - no. of events (severe adverse event): 1
Car accident related body numbness - % of pts (severe adverse event): [1, 1%]
Car accident related body numbness - no of pts (severe adverse event): [1, 1%]
Car accident related body numbness - no. of events (severe adverse event): 1
Heart failure - no. of events (severe adverse event): 0
MS relapse - % of pts (severe adverse event): 6%
MS relapse - no of pts (severe adverse event): 5
MS relapse - no. of events (severe adverse event): 6
Migraine headache related eye pain - no. of events (severe adverse event): 0
Pace maker implantation - no. of events (severe adverse event): 0
Pregnancy termination - no. of events (severe adverse event): 0
Pyelonephritis - no. of events (severe adverse event): 0
Right knee replacement - % of pts (severe adverse event): [1, 1%]
Right knee replacement - no of pts (severe adverse event): [1, 1%]
Right knee replacement - no. of events (severe adverse event): 1
Systolic heart failure - no. of events (severe adverse event): 0
UTI - % of pts (severe adverse event): [1, 1%]
UTI - no of pts (severe adverse event): [1, 1%]
UTI - no. of events (severe adverse event): 1

Reference: US10406169B2, “Methods of monitoring estriol therapy” (The Regents of the University of California, priority 2015, dated 2019)
